Values joined by “and” are separate entries in the source; they are usually repeats but may differ in a detail not shown here. Identical values can stand only once.
Columns and labels:
[1] = system: human platelet rich plasma; experiment: Collagen-induced platelet aggregation in vitro in human platelet rich plasma (method of Born and O'Brien), change in optical density; format: cell-based; conditions: collagen 500 mcg./ml., read-out: Percent Inhibition (of maximum aggregation response to collagen in a control sample)
Method: Various concentrations of the compound were added in vitro to human platelet rich plasma. Collagen (final concentration 500 mcg./ml.) was added to induce platelet aggregation. Inhibition of platelet aggregation was determined by measuring the change in the optical density of the platelet rich plasma.

platelet rich plasma = experiment: Collagen-induced aggregation of platelet rich plasma from orally treated male rats; format: in vivo; conditions: Rattus norvegicus, po, 2 h, 100 mg./kg. orally, bled after one to two hours, collagen 500 mcg./ml., read-out: Percent Inhibition of aggregation
Method: In a second test the in vivo activity of the compound was established. In this test the compound was administered orally to male rats at a concentration of 100 mg./kg. After one to two hours, the rats were bled and platelet rich plasma obtained. Collagen, at a concentration of 500 mcg./ml. was added to induce platelet aggregation and comparisons were made between control and treated samples. The percent inhibition of aggregation produced by the compound of this invention appears in Table II.

[2] = system: respiratory depression associated with platelet aggregation and thrombosis induced by arachidonic acid; experiment: Respiratory depression induced by arachidonic acid in mice; format: in vivo
Method: Two hours later a challenge dose of arachidonic acid was given to the mice intravenously at a concentration of 50 mg./kg. The period of respiratory distress for each animal was recorded in seconds by observation. The results appear in Table III in comparison with controls who received only starch vehicle.

pain = conditions: warm-blooded animals; U.S. Pat. No. 3,784,704; cited from earlier work

## O=C(O)Cc1ccc(-c2ccccc2)cc1 [4-Biphenylacetic acid]
[1]; concentration 25 mcg./ml.
  inhibition at 25 µg/mL: 38.6%
[1]; concentration 250 mcg./ml.
  inhibition at 250 µg/mL: 40.7%
Platelet rich plasma
  inhibition at 100 mg/kg: 12%
[2]; 100 mg./kg. orally, arachidonic acid 50 mg./kg. i.v. two hours later, average of 21 treated animals (controls 7.58 minutes)
  period of respiratory distress, Average, Treated: 1.93 min
[2]; 100 mg./kg. orally, arachidonic acid 50 mg./kg. i.v. two hours later, individual animals 1-21, one line each in order
  period of respiratory distress, Time in Seconds, Treated (individual animals): 420 s and 200 s and 30 s and 150 s and 170 s and 80 s and 195 s and 125 s and 35 s and 120 s and 25 s and 20 s and 60 s and 50 s and 90 s and 75 s and 70 s and 189 s and 100 s
[2]; in vivo
  inhibition of respiratory depression induced by arachidonic acid (in words): inhibits the respiratory depression
pain
  amelioration of pain (in words): long lasting amelioration of pain

From patent US3966978A (American Cyanamid Company, priority 1975, dated 1976)
